Among the data in the supplement of paper PMC10307832 are relative viability values, retold here.

What all share (assay): relative viability (nuclei count vs DMSO), 5 days (fraction); higher = more cells survive
Compound in the test “Crenolanib + Lapatinib”: CC1(COc2ccc3c(c2)ncn3-c2ccc3cccc(N4CCC(N)CC4)c3n2)COC1 [Crenolanib] + CS(=O)(=O)CCNCc1ccc(-c2ccc3ncnc(Nc4ccc(OCc5cccc(F)c5)c(Cl)c4)c3c2)o1 [Lapatinib] (partner 2 µM)
Put shortly:
(§1)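 Nuclei were stained with Hoechst during a one-step fixation (final 0.05% Triton X-100, 1% formaldehyde, 1 ug/ml Hoechst) carried out 5 days after dosing, then counted on 4× images. The cells, lung cancer lines in 1536-well plates, had been dosed by pin tool the day after seeding with one drug alone or a fixed anchor-drug dose plus five library-drug doses (not always all listed) in √10 steps. Relative viability is the nuclei count in treated wells divided by that in vehicle wells, and each value is the median of duplicate plates.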

Compound in the test “Tivantinib + Crizotinib”: O=C1NC(=O)[C@@H](c2cn3c4c(cccc24)CCC3)[C@@H]1c1c[nH]c2ccccc12 [Tivantinib] + C[C@@H](Oc1cc(-c2cnn(C3CCNCC3)c2)cnc1N)c1c(Cl)ccc(F)c1Cl [Crizotinib] (partner 1 µM)
Put shortly: as §1

Compound in the test “Tivantinib + Olaparib”: O=C1NC(=O)[C@@H](c2cn3c4c(cccc24)CCC3)[C@@H]1c1c[nH]c2ccccc12 [Tivantinib] + O=C(c1cc(Cc2n[nH]c(=O)c3ccccc23)ccc1F)N1CCN(C(=O)C2CC2)CC1 [Olaparib] (partner 8 µM)
In a few lines: as §1

Compound in the test “Crenolanib + Dasatinib”: CC1(COc2ccc3c(c2)ncn3-c2ccc3cccc(N4CCC(N)CC4)c3n2)COC1 [Crenolanib] + Cc1nc(Nc2ncc(C(=O)Nc3c(C)cccc3Cl)s2)cc(N2CCN(CCO)CC2)n1 [Dasatinib] (partner 0.075 µM)
In a few lines: as §1

SK-MES-1: the relative viability is 0.449 in the test with Crenolanib + Lapatinib (first compound 0.01 µM); 0.504 with Crenolanib + Lapatinib (first compound 0.03162 µM); 0.422 with Crenolanib + Lapatinib (first compound 0.1 µM); 0.467 with Crenolanib + Lapatinib (first compound 0.3162 µM); 0.458 in the test with Crenolanib + Lapatinib (first compound 1 µM); 0.984 with Tivantinib + Crizotinib (first compound 0.01 µM). Also, the relative viability in the test with Tivantinib + Crizotinib (first compound 0.03162 µM) worked out at 1.06; with Tivantinib + Crizotinib (first compound 0.1 µM), 0.89; with Tivantinib + Crizotinib (first compound 0.3162 µM), 0.739; with Tivantinib + Olaparib (first compound 0.01 µM), 0.751; in the test with Tivantinib + Olaparib (first compound 0.03162 µM) it was 0.659; with Tivantinib + Olaparib (first compound 0.3162 µM), 0.874. Besides, the relative viability in the test with Crenolanib + Dasatinib (first compound 0.01 µM) stood at 0.39; with Crenolanib + Dasatinib (first compound 0.03162 µM), 0.448; with Crenolanib + Dasatinib (first compound 0.1 µM), 0.358; with Crenolanib + Dasatinib (first compound 0.3162 µM), 0.409; with Crenolanib + Dasatinib (first compound 1 µM) it was 0.358.

As for SW 1573, the relative viability with Crenolanib + Lapatinib (first compound 0.01 µM) came to 1.01; in the test with Crenolanib + Lapatinib (first compound 0.03162 µM), 1.06; in the test with Crenolanib + Lapatinib (first compound 0.1 µM), 1.3; in the test with Crenolanib + Lapatinib (first compound 0.3162 µM) it was 1.18; with Crenolanib + Lapatinib (first compound 1 µM), 1.1; with Tivantinib + Crizotinib (first compound 0.01 µM), 0.751. For the same cell line, the relative viability with Tivantinib + Crizotinib (first compound 0.03162 µM) worked out at 0.761; with Tivantinib + Crizotinib (first compound 0.1 µM), 0.902; with Tivantinib + Crizotinib (first compound 0.3162 µM) it was 0.496; with Tivantinib + Olaparib (first compound 0.01 µM), 0.532; in the test with Tivantinib + Olaparib (first compound 0.03162 µM), 0.481; in the test with Tivantinib + Olaparib (first compound 0.1 µM), 0.544. The relative viability with Tivantinib + Olaparib (first compound 0.3162 µM) worked out at 0.488; in the test with Crenolanib + Dasatinib (first compound 0.01 µM), 0.539; with Crenolanib + Dasatinib (first compound 0.03162 µM), 0.48; with Crenolanib + Dasatinib (first compound 0.1 µM) it was 0.591; with Crenolanib + Dasatinib (first compound 0.3162 µM), 0.558; with Crenolanib + Dasatinib (first compound 1 µM), 0.553.

For the cell line UMC-11, the relative viability in the test with Crenolanib + Lapatinib (first compound 0.01 µM) was determined as 0.955; with Crenolanib + Lapatinib (first compound 0.03162 µM), 1.04; with Crenolanib + Lapatinib (first compound 0.1 µM), 0.895; with Crenolanib + Lapatinib (first compound 0.3162 µM) it was 0.985; with Crenolanib + Lapatinib (first compound 1 µM), 0.95; with Tivantinib + Crizotinib (first compound 0.01 µM), 0.662. The relative viability with Tivantinib + Crizotinib (first compound 0.03162 µM) was determined as 0.601; with Tivantinib + Crizotinib (first compound 0.1 µM) it was 0.637; with Tivantinib + Crizotinib (first compound 0.3162 µM), 0.531; with Tivantinib + Olaparib (first compound 0.01 µM) it was 0.354; in the test with Tivantinib + Olaparib (first compound 0.03162 µM) it was 0.341; with Tivantinib + Olaparib (first compound 0.1 µM), 0.365. The relative viability in the test with Tivantinib + Olaparib (first compound 0.3162 µM) was 0.362; in the test with Crenolanib + Dasatinib (first compound 0.01 µM), 0.45; in the test with Crenolanib + Dasatinib (first compound 0.03162 µM), 0.52; with Crenolanib + Dasatinib (first compound 0.1 µM), 0.427; with Crenolanib + Dasatinib (first compound 0.3162 µM) it was 0.506; with Crenolanib + Dasatinib (first compound 1 µM) it was 0.481.
